# Measured values reported in patent US10844044B2 (Vanderbilt University, priority 2018, dated 2020).
# Like-named read-outs stand apart in the source and are kept apart here.
# Experiments:
# WDR5 = WDR5 (Homo sapiens (Human), UniProt P61964); assay: TR-FRET binding assay (displacement of 10mer-Thr-FAM probe from WDR5)
# [1] = test system: MV4:11 human cancer cell lines; assay: Anti-proliferative activity, CellTiter-Glo viability assay, 7 day protocol; type: cell-based; conditions: Homo sapiens, MV4:11 cells, 7 day incubation, read-out: GI50 on cellular proliferation of MV4:11 human cancer cell lines
# Description: Viability assays are performed by dispensing […] into each well of an opaque 384-well plate and adding compounds at the indicated concentrations in a final volume of 32 μL and a final concentration of DMSO of 0.1% for all samples. After a set incubation period, 7 day protocol, the viability of cells in each well is assessed using the CellTiter-Glo assay (Promega), read on a GloMax 96 Microplane Luminometer (Promega). Serial dilutions of each cell type are included in all assays to generate standard curves and determine assay measurements are taken within the dynamic range of the instrument. GI50 values are calculated based on three biological replicates, each with three technical replicates. Data are expressed as mean plus/minus S.E.M.
# [2] = read-out: Ki for Inhibition of WDR5 by TR-FRET assay, TR-FRET, 10mer-Thr-FAM probe, WDR5-His tag 2 nM, pH 7.0
# [3] = read-out: Ki for Inhibition of WDR5 by TR-FRET assay
Structure (SMILES),"GI50 ([1]; MV4-11, 168 h)",other results
"Cc1cc([C@H](C)NC(=O)c2cc(Cn3ccn(C)c3=N)cc(-c3ccc(F)cc3C(F)(F)F)c2F)ccc1F [Example 172, (S)-2,4′-Difluoro-N-(1-(4-fluoro-3-methylphenyl)ethyl)-5-((2-imino-3-methyl-2,3-dihydro-1H-imidazol-1-yl)methyl)-2′-(trifluoromethyl)-[1,1′-biphenyl]-3-carboxamide]",160 nM,Ki (WDR5): < 0.1 nM
"COc1cc(OC)cc(C(NC(=O)c2cc(Cn3ccn(C)c3=N)cc(-c3ccc(F)cc3OC(F)F)c2)C2CC2)c1 (stereo not drawn) [Example 63, N-(Cyclopropyl(3,5-dimethoxyphenyl)methyl)-2′-(difluoromethoxy)-4′-fluoro-5-((2-imino-3-methyl-2,3-dihydro-1H-imidazol-1-yl)methyl)-[1,1′-biphenyl]-3-carboxamide]",460 nM,Ki (WDR5; [2]): 0.1 nM
"Cc1ccnc(C(NC(=O)c2cc(Cn3ccn(C)c3=N)cc(-c3ncccc3C(F)(F)F)c2)C2CC2)c1 (stereo not drawn) [Example 364, N-(Cyclopropyl(4-methylpyridin-2-yl)methyl)-3-((2-imino-3-methyl-2,3-dihydro-1H-imidazol-1-yl)methyl)-5-(3-(trifluoromethyl)pyridin-2-yl)benzamide]",7800 nM,Ki (WDR5; [2]): 4.3 nM
"Cc1cc(F)cc(F)c1-c1cc(Cn2ccn(C)c2=N)cc(C(=O)NCc2ccc(Cl)c(Cl)c2)c1 [Example 28, N-(3,4-Dichlorobenzyl)-2′,4′-difluoro-5-((2-imino-3-methyl-2,3-dihydro-1H-imidazo-1-yl)methyl)-6′-methyl-[1,1′-biphenyl]-3-carboxamide]",1300 nM,Ki (WDR5; [2]): 0.35 nM
"COc1cc(CNC(=O)c2cc(CN3CCSC3=N)cc(-c3ccc(F)cc3C)c2)cc(OC)c1 [Example 308, N-(3,5-Dimethoxybenzyl)-4′-fluoro-5-((2-iminothiazolidin-3-yl)methyl)-2′-methyl-[1,1′-biphenyl]-3-carboxamide]",630 nM,Ki (WDR5; [3]): 0.45 nM
"COc1cc([C@@H](NC(=O)c2cc(Cn3ccsc3=N)cc(-c3cn(C)nc3C(F)(F)F)c2)C2CC2)ccc1F [Example 327, (S)—N-(Cyclopropyl(4-fluoro-3-methoxyphenyl)methyl)-3-((2-iminothiazol-3(2H)-yl)methyl)-5-(1-methyl-3-(trifluoromethyl)-1H-pyrazol-4-yl)benzamide]",< 100 nM,Ki (WDR5; [2]): < 0.1 nM
"COc1cc(CNC(=O)c2cc(Cn3ccn(C)c3=N)cc(-c3ncc(F)cc3C)c2)cc(OC)c1 [Example 67, N-(3,5-Dimethoxybenzyl)-3-(5-fluoro-3-methylpyridin-2-yl)-5-((2-imino-3-methyl-2,3-dihydro-1H-imidazol-1-yl)methyl)benzamide]",3800 nM,Ki (WDR5; [3]): 3.9 nM
"Cc1cc([C@@H](NC(=O)c2cc(CN3CCOC3=N)cc(-c3ccc(F)cc3C#N)c2)C2CC2)ccc1F [Example 282, (S)-2′-Cyano-N-(cyclopropyl(4-fluoro-3-methylphenyl)methyl)-4′-fluoro-5-((2-iminooxazolidin-3-yl)methyl)-[1,1′-biphenyl]-3-carboxamide]",200 nM,Ki (WDR5; [2]): 0.21 nM
"Cc1cc(F)ccc1-c1cc(Cn2ccoc2=N)cc(C(=O)N[C@@H](C)c2ccc(F)c(C(F)(F)F)c2)c1 [Example 233, (S)-4′-Fluoro-N-(1-(4-fluoro-3-(trifluoromethyl)phenyl)ethyl)-5-((2-iminooxazol-3(2H)-yl)methyl)-2′-methyl-[1,1′-biphenyl]-3-carboxamide]",1100 nM,
COc1ccnc([C@@H](NC(=O)c2cc(Cn3ccn(C)c3=N)cc(-c3ccc(F)cc3C)c2)C2CC2)c1 [Example 97],250 nM,
"Cc1cc([C@@H](NC(=O)c2cc(Cn3ccoc3=N)cc(-c3ncc(F)cc3C(F)(F)F)c2)C2CC2)ccc1F [Example 241, (S)—N-(Cyclopropyl(4-fluoro-3-methylphenyl)methyl)-3-(5-fluoro-3-(trifluoromethyl)pyridin-2-yl)-5-((2-iminooxazol-3(2H)-yl)methyl)benzamide]",12000 nM,
"CCn1cc(-c2cc(Cn3ccoc3=N)cc(C(=O)NCc3ccc(=O)n(C)c3)c2)c(C(F)(F)F)n1 [Example 292, 3-(1-Ethyl-3-(trifluoromethyl)-1H-pyrazol-4-yl)-5-((2-iminooxazol-3(2H)-yl)methyl)-N-((1-methyl-6-oxo-1,6-dihydropyridin-3-yl)methyl)benzamide]",710 nM,
"Cc1cc([C@@H](NC(=O)c2cc(CN3CCOC3=N)cc(-c3cccnc3C(F)(F)F)c2)C2CC2)ccc1F [Example 253, (S)-(Cyclopropyl(4-fluoro-3-methylphenyl)methyl)-3-((2-iminooxazolidin-3-yl)methyl)-5-(2-(trifluoromethyl)pyridin-3-yl)benzamide]",< 100 nM,
"Cc1cc([C@@H](C)NC(=O)c2cc(Cn3ccn(C)c3=N)cc(-c3ccc(F)cc3C)c2)ccc1F [Example 29, (R)-4′-Fluoro-N-(1-(4-fluoro-3-methylphenyl)ethyl)-5-((2-imino-3-methyl-2,3-dihydro-imidazol-1-yl)methyl)-2′-methyl-[1,1′-biphenyl]-3-carboxamide]",780 nM,
Cc1cc(CNC(=O)c2cc(Cn3ccn(C)c3=N)cc(-c3c(C)cc(F)cc3C)c2)ccc1Cl [Example 59],,GI50 ([1]; 168 h): 460 nM
"Cc1ccnc(C(NC(=O)c2cc(Cn3ccn(C)c3=N)cc(-c3cccnc3C(F)(F)F)c2)C2CC2)c1 (stereo not drawn) [Example 77, N-(Cyclopropyl(4-methylpyridin-2-yl)methyl)-3-((2-imino-3-methyl-2,3-dihydro-1H-imidazol-1-yl)methyl)-5-(2-(trifluoromethyl)pyridin-3-yl)benzamide]",1200 nM,
"COc1cc(CNC(=O)c2cc(Cn3ccsc3=N)cc(-c3ccc(F)cc3C)c2)cc(OC)c1 [Example 307, N-(3,5-Dimethoxybenzyl)-4′-fluoro-5-((2-iminothiazol-3(2H)-yl)methyl)-2′-methyl-[1,1′-biphenyl]-3-carboxamide]",910 nM,
"Cc1cc([C@@H](NC(=O)c2cc(Cn3ccoc3=N)cc(-c3ccc(F)cc3OC(F)F)c2)C2CC2)ccc1F [Example 242, (S)—N-(Cyclopropyl(4-fluoro-3-methylphenyl)methyl)-2′-(difluoromethoxy)-4′-fluoro-5-((2-iminooxazol-3(2 h)-yl)methyl)-[1,1′-biphenyl]-3-carboxamide]",120 nM,
"Cc1cc(F)ccc1-c1cc(Cn2ccn(C)c2=N)cc(C(=O)NCc2ccc(Cl)c(Cl)c2)n1 [Example 5, N-(3,4-dichlorobenzyl)-6-(4-fluoro-2-methylphenyl)-4-((2-imino-3-methyl-2,3-dihydro-1H-imidazol-1-yl)methyl)picolinamide]",240 nM,
"Cc1cc(F)ccc1-c1cc(Cn2ccn(C)c2=N)cc(C(=O)N[C@H](C)c2ccc(F)c(C(F)(F)F)c2)c1 [Example 32, (R)-4′-Fluoro-N-(1-(4-fluoro-3-(trifluoromethyl)phenyl)ethyl)-5-((2-imino-3-methyl-2,3-dihydro-1H-imidazol-1-yl)methyl)-2′-methyl-[1,1′-biphenyl]-3-carboxamide]",1500 nM,
"Cc1ccnc(C(NC(=O)c2cc(Cn3ccoc3=N)cc(-c3ncc(F)cc3C)c2)C2CC2)c1 (stereo not drawn) [Example 239, N-(Cyclopropyl(4-methylpyridin-2-yl)methyl)-3-(5-fluoro-3-methylpyridin-2-yl)-5-((2-iminooxazol-3(2H)-yl)methyl)benzamide]",5300 nM,
Cc1cc([C@@H](NC(=O)c2cc(Cn3ccn(C)c3=N)cc(OCC3CC3)c2)C2CC2)ccc1F [Example 175],320 nM,
